Source: publication PMC4861277, “The KISS1 Receptor as an In Vivo Microenvironment Imaging Biomarker of Multiple Myeloma Bone Disease” (PLoS ONE, 2016)
Ends that are not written are not given here.

What was measured:
[1] = system: KISS1R-expressing cell line MCF-7; assay: Fluorescence microscopy of probe binding to cultured MCF-7 cells; format: cell-based, human; settings: S2A Fig
Procedure: MSCs were seeded in a Nunc^TM Lab-Tek^TM II 4-well chamber slide (6.7x10^3 cells/well) (Thermo Fischer Scientific GmbH, Erlangen, Germany) and allowed to attach overnight. Afterwards, the medium was replaced by 500 μl mixed media, 1:1 (v/v), followed by 24 h incubation. The day after, 500 μl mixed media, 1:1 (v/v) containing 1x10^4 INA-6 cells or 1.5x10^5 MOPC cells, 500 μl MM cell-derived supernatant (conditioned media) or 500 μl mixed media, 1:1 (v/v) (control) was added per well. […] After rinsing three times with PBS, cells were fixed in 4% paraformaldehyde and mounted with Vectashield mounting media for fluorescence containing 4',6-diamidino-2-phenylindole (Vector Laboratories, Inc., purchased from Linaris, Dossenheim, Germany). Images were acquired using a BZ-9000 fluorescence microscope (Cy5 filter) and the softwares BZ-II Viewer and BZ-II Analyzer 2.1 (all from Keyence, Neu-Isenburg, Germany).
(§1) Supplementary file pone.0155087.s002.tif: S2 Fig Alexa 633-kisspeptin binds to the KISS1R-expressing cell line MCF-7 in vitro and in vivo. Cultured MCF-7 cells were incubated with either free dye or dye conjugated to the modified kisspeptin and imaged with fluorescence microscopy (A). […] Tibia fluorescence was quantified over time (D) and plateau fluorescent values determined (E). […]

primary MSCs (KISS1R) = assay: Fluorescence microscopy of probe binding to primary MSCs (alone, conditioned media, direct co-culture with MM cells); format: cell-based, human; settings: for binding to primary MSCs under normal culture conditions: MSCs alone, room temperature, fluorescence microscopy (Cy5 filter), Fig 4A; for binding to primary MSCs under normal culture conditions / binding to MSCs and MM cells after direct co-culture: 30 min incubation, 40 μmol/l; for binding to MSCs and MM cells after direct co-culture: MSCs directly co-cultured 24 h with INA-6 or MOPC cells
Procedure: MSCs were seeded in a Nunc^TM Lab-Tek^TM II 4-well chamber slide (6.7x10^3 cells/well) (Thermo Fischer Scientific GmbH, Erlangen, Germany) and allowed to attach overnight. Afterwards, the medium was replaced by 500 μl mixed media, 1:1 (v/v), followed by 24 h incubation. The day after, 500 μl mixed media, 1:1 (v/v) containing 1x10^4 INA-6 cells or 1.5x10^5 MOPC cells, 500 μl MM cell-derived supernatant (conditioned media) or 500 μl mixed media, 1:1 (v/v) (control) was added per well. For preparation of the conditioned media, INA-6 cells (2x10^5 cells/ml) or MOPC cells (3.75x10^4 cells/ml) were cultured for one day in mixed media, 1:1 (v/v), followed by centrifugation (270 g, 5 min) and filtration of the supernatant (filter pore size: 0.45 μm). After 24 h, cells were incubated for 30 min with either free dye or the Alexa 633-kisspeptin (40 μmol/l) at room temperature. After rinsing three times with PBS, cells were fixed in 4% paraformaldehyde and mounted with Vectashield mounting media for fluorescence containing 4',6-diamidino-2-phenylindole (Vector Laboratories, Inc., purchased from Linaris, Dossenheim, Germany). Images were acquired using a BZ-9000 fluorescence microscope (Cy5 filter) and the softwares BZ-II Viewer and BZ-II Analyzer 2.1 (all from Keyence, Neu-Isenburg, Germany).

[2] = system: MCF-7 tumor-burdened tibiae; assay: In vivo fluorescence imaging of mice intratibially injected with MCF-7 cells; settings: CD-1 nude mice, intratibial MCF-7, 100 μl of 40 μM probe, NightOwl imaging for 20 min, plateau values, n = 3, p<0.05 (S2E Fig)
Procedure: (§2) In vivo binding of Alexa 633-kisspeptin was tested in immune competent BALB/c and CD-1 nude mice, inoculated with MOPC cells and MCF-7 cells, respectively. All experiments were performed according to the German regulations for animal experimentation. The study was approved by the Regierung von Unterfranken as the responsible authority (Permit Number 55.2–2531.01-76/10 and -103/11) and by the institutional authorities of the Ethics Committee for Animal Experiments at the Christian Albrechts University of Kiel (V242-7224.121–17). 1x10^6 MCF-7 cells transfected with the near-infrared fluorescent protein [31] were suspended in 5 μl PBS and injected directly into the right tibia, with equal amounts of PBS injected into contralateral control limbs, of 3 female CD-1 nude mice (Charles River). Tumor progression was monitored using the NightOwl planar imaging system (Berthold Technologies, Bad Wildbad, Germany). […]
as §1

[3] = system: MOPC315.BM2-LucGFP MM bone lesions; assay: In vivo time-lapse fluorescence imaging of MM bone lesions (MOPC model); settings: BALB/c mice with MOPC lesions in one hind leg, 100 μl of 40 μM probe i.v., imaged for 1 h, relative to pre-scan, n = 6, p<0.01 (Fig 5E)
Procedure: as §2, with “Germany). 1x10^5 MOPC cells, suspended in 100 μl PBS, were injected i.v. via the lateral tail vein into immune-competent female BALB/c mice (Charles River). 19 days after the injection of the MM cells, mice were imaged by in vivo bioluminescence (BLI) to identify 6 mice which contain lesions in only one of the hind legs. All animals were kept in temperature and humidity-controlled, pathogen-free environment, with a 12 h light/dark cycle, and access to food and water ad libitum.” for “Germany).”

[4] = mouse, in vivo, iv
Procedure: BLI was performed with an IVIS Spectrum (Caliper-Xenogen, Alameda, CA, USA) as previously described [32]. Briefly, mice were anesthetized i.p. with a mixture of ketamine (100 mg/kg) and xylazine (10 mg/kg) in PBS. Luciferin (150 mg/kg) was co-injected and BLI measurements were started 10 min later. For MCF-7 mice, animals were imaged every minute following injection of 100 μl of Alexa 633-kisspeptin (40 μM) using the NightOwl. For MM-containing mice, a fluorescence pre-scan (excitation filter: 605 nm, emission filter: 660 nm; illumination time: 1 s) was performed using the IVIS Spectrum. Next, mice were injected with 100 μl of Alexa 633-kisspeptin (40 μM) in the lateral tail vein and immediately imaged every two minutes for up to 20 min using the fluorescence settings as described above. In addition, fluorescent images were acquired after 30, 45, and 60 min. At the end of the experiment mice were then euthanized, organs were prepared, and fluorescence ex vivo imaging of the organs was performed. Imaging data was analyzed with Living Image 4.0 (Caliper-Xenogen, Alameda, CA, USA) and Prism 5 software (GraphPad, La Jolla, CA, USA).
All statistical analyses were conducted using Prism 5 software. Comparison between groups was made using either a paired or unpaired two-sample t-tests. Comparison of organ fluorescence was conducted using a 1-way ANOVA and Turkey’s multiple comparison test. Alexa 633-kisspeptin binding kinetics were quantified using association then dissociation curves with time0 = 25 min and NS = 1. P values of <0.05 were considered to be statistically significant.

[5] = system: matrix metalloproteinase 2; settings: cited from earlier work
Text: The data presented herein support KISS1R as a novel and promising new biomarker for myeloma bone disease, but still several questions remain. Firstly, while we have described the up-regulation of the KISS1R cells directly interacting with MM cells, little is known so far about the role of kisspeptin and the KISS1R in MM disease progression. It will be of great importance to understand the role of kisspeptin and the KISS1R in both bone marrow cells and MM, and to be aware of what potential side effects, either positive or negative, may be associated with targeting or activation of this system. ...

[6] = compared with 10, 13 and 14 amino acid isoforms; cited from earlier work

Substance | binding to MCF-7 cells in vitro [1] | binding to MSCs cultured in MM cell conditioned media (primary MSCs (KISS1R); MSCs 24 h in INA-6 or MOPC conditioned media, 30 min with 40 μmol/l probe, Fig 4B) | binding to primary MSCs under normal culture conditions (primary MSCs (KISS1R)) | binding to MSCs and MM cells after direct co-culture (primary MSCs (KISS1R); Fig 4B) | fluorescence signal in tumor-burdened tibiae relative to contralateral controls [2] | peak fluorescence in tumor-burdened limbs compared to contralateral sites [3] | organ uptake: kidney fluorescence [4] | organ uptake: liver fluorescence [4] | organ uptake: ovaries [4] | cleavage by matrix metalloproteinase 2 [5] | stability of the 54 amino acid form relative to the shorter isoforms [6]
Alexa 633-kisspeptin: 54 amino acid kisspeptin with an N-terminal cysteine residue, labeled with Alexa Fluor 633 C5 Maleimide (C(Alexa Fluor 633 C5 maleimide)GTSLSPPPESSGSPQQPGLSAPHSRQIPAPQGAVLVQREKDLPNYNWNSFGLRF; ends and bridges not checked) | bound | low level probe binding | low level, heterogeneous binding | at high levels | significantly elevated signals | Significantly greater peak fluorescence levels | significantly high levels of fluorescence | significantly high levels of fluorescence | a notable amount of probe was also detected | – | –
Alexa Fluor 633 C5 Maleimide [free dye, reference compound] | – | – | no notable fluorescence | failed to show any specific binding | – | – | – | – | – | – | –
kisspeptin | – | – | – | – | – | – | – | – | – | cleaved and inactivated | higher stability
